{FAM} = fluorescein (FAM) reporter dye; {TAMRA} = TAMRA quencher dye
Key:
[1] = system: FRET substrate (SL1); assay: Real time FRET measurement of ribozyme cleavage activity (HHR1 with substrate SL1); assay type: biochemical; conditions: HHR1 4 nM, 37° C.; SL1 vs S1 (conventional gel/autoradiography method)
Text: As the increase in fluorescence is directly correlated to the cleavage rate, the system is suitable for a sensitive, non-radioactive and fast analysis of ribozyme activities. A FRET substrate (SLI) was constructed on the basis of a known HHR/substrate complex (M. Fedor, O. C. Uhlenbeck, Proc. Natl. Acad. Sci. USA (1990), 87, 1668-1672) and was used for a time-dependent measurement of ribozyme activity (HHR1). […] The Michaelis-Menten parameter of HHR can be obtained in a single experiment by measurement of the cleavage-caused rise in fluorescence at different substrate concentrations.
In order to find out whether the method is suitable for the fast characterization of ribozymes, the activity was measured in parallel batches while various physico-chemical parameters were modified.
FIGS. 3b-d show the dependency of the reaction rate on the pH value, the temperature and the Mg^2+ concentration. […]
Characterization of the cleavage activity at 4 nM HHR1 and 200 or 300 nM SL1. (a) Time-dependent course of cleavage with the reciprocally exponential regression curve (only 1% of all data points measured are depicted). […] (0.0134 nM^−1 min^−1) were also determined.
The real time measurements of the rise in fluorescence caused by the ribozyme were taken in 50 μl reaction batches. The signal measured comprises both the chemical step of cleavage and the release of the cleavage products. […]

[2] = system: substrate RNA SL1; assay: Real time measurement of fluorescence at cleavage of SL1 by HHR1 transcribed in vitro with T7-RNA polymerase; assay type: biochemical; conditions: 900 nM SL1, 37° C., 535 nm, T7 in-vitro transcription
Description: A typical 50 μl reaction batch contained: 40 mM tris HCl, pH 8.0, 50 mM NaCl, 2 mM spermidin, 5 mM dithiothreitol, 5 to 25 mM MgCl2, about 500 nM SL1, 0.2 to 2 μM HHR1-DNA or HHR1mut-DNA, 4mM A/C/G/UTP and 50 units of T7-RNA-polymerase. […] In-vitro transcription was started by the addition of the polymerase, and incubation was carried out at 37° C. while the measurement was taken. • 3. Real Time Measurement of Fluorescence at Cleavage of SL1 by HHR1:
The fluorescence of the transcription batches was measured in an automated manner in an ABI Prism 770 spectrometer (Applied Biosystems, USA), the temperature of which could be adjusted. The spectra in the emission wavelength range of the two dyes (FAM, λmax=518 nm and TAMRA, λmax=582 nm) were recorded in intervals of 7 seconds (excitation energy=488 nm). After an incubation time of 3 hours, the collected data were evaluated by the software contained in the equipment. For a real time control of the individual transcriptions, the fluorescence spectra (range of 500 nm to 660 nm) were projected time-dependently over the spectrum of the reference transcription (with non-functional HHR1mut DNA).

Row | relative fluorescence ΔRn of the fluorophore / fluorescence signal [2] | Substance | Kcat and KM values of FRET substrate compared with 32P labeled substrate S1 [1]
1 |  | 5′-FAM-ACG AGU CAG GAU U-TAMRA-3′ (ACGAGUCAGGAUU; RNA, 5' {FAM}, 3' {TAMRA}, backbone not given here) [SL1, 5′-FAM and 3′-TAMRA labeled substrate RNA (FRET substrate)] | in the same order of magnitude
2 | increased with the incubation times | 5′-TCT AAT ACG ACT CAC TAT A GGGTCCTCTGATGAGGCCGTTAGGCCGAAACTCGT-3′ [HHR1-DNA] | 
3 | no influence | 5′-TCT AAT ACG ACT CAC TAT A GGGTCCTCTTAGGAGGCCGTTAGGCCAGAACTCGT-3′ [HHR1mut, reference compound] | 

Reference: patent US6861223B2, “Ribozyme-encoding DNA and a composition containing an oligonucleotide substrate and a method for measuring transcription rates” (priority 1998, dated 2005)
